Test results reported in ChEMBL document CHEMBL4321852, “Structure-Based and Property-Driven Optimization of N-Aryl Imidazoles toward Potent and Selective Oral RORγt Inhibitors” (J Med Chem, 2019).

Legend:
[1] = Oral bioavailability in DA rat at 3 mg/kg; format: ADME, organism-based; conditions: in vivo
[2] = biological target: T1, Nuclear receptor ROR-gamma (Homo sapiens, UniProt P51449); test: Inverse agonist activity at RORgammat in human whole blood assessed as reduction in Con A/IL-23-stimulated IL-17 secretion after 72 hrs by ELISA; format: tissue-based
T1 sequence (P51449 whole entry): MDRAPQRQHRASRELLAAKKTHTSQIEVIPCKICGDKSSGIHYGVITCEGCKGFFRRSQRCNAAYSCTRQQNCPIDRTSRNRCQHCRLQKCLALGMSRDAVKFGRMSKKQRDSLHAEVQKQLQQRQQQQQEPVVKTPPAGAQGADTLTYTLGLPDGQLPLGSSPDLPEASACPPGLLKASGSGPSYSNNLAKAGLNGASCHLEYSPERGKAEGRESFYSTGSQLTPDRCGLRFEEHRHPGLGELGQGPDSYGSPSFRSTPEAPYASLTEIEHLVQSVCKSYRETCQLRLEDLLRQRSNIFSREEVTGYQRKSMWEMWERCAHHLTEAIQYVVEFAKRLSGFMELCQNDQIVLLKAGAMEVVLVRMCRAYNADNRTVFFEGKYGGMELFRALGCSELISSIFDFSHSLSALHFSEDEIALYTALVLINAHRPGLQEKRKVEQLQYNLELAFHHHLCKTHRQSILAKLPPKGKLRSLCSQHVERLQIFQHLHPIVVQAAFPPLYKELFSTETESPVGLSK

[3] = biological target: T2, Progesterone receptor (Homo sapiens, UniProt P06401); test: Inhibition of Gal4-tagged PR LBD (unknown origin) by cell based luciferase reporter gene assay
T2 sequence (P06401 whole entry): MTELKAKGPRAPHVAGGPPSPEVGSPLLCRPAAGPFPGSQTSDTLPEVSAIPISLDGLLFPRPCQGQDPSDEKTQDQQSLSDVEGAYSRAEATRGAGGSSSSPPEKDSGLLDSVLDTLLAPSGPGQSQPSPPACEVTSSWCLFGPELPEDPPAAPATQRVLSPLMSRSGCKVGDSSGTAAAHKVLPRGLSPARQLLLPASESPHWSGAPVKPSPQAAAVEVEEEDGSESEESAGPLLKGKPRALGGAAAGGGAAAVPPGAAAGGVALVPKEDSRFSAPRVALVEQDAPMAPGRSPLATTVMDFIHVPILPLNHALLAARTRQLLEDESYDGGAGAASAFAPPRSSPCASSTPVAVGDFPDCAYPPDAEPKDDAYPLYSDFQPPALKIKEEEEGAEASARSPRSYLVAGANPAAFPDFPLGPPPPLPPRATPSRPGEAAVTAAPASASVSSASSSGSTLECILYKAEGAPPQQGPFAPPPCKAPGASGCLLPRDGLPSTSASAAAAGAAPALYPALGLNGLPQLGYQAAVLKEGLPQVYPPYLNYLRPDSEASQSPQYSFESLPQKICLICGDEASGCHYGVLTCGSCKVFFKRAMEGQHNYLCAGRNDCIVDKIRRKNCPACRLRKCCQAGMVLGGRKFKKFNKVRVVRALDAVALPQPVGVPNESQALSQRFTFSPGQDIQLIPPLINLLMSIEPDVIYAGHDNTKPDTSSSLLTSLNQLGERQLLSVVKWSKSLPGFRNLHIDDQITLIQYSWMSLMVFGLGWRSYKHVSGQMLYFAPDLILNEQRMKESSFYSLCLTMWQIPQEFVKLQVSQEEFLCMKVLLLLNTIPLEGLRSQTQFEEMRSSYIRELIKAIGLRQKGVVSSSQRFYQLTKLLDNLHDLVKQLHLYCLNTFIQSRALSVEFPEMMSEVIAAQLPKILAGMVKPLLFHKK

[4] = biological target: T3, Bile acid receptor (Homo sapiens, UniProt Q96RI1); test: Inhibition of Gal4-tagged FXR LBD (unknown origin) by cell based luciferase reporter gene assay
T3 sequence (Q96RI1 whole entry): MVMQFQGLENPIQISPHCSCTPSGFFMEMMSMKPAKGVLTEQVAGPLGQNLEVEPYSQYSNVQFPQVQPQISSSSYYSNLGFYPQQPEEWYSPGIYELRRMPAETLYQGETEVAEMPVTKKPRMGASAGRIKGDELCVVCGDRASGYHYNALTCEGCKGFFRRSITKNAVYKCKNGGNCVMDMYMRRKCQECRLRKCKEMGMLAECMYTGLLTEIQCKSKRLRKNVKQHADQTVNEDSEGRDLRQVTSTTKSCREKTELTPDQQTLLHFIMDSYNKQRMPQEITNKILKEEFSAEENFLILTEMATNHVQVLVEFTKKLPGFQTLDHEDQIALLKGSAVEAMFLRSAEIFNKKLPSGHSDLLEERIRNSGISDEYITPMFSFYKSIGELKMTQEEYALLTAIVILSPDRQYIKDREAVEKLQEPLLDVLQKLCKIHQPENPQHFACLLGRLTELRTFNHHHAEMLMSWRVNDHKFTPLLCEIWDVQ

[5] = biological target: T4, Estrogen receptor (Homo sapiens, UniProt P03372); test: Inhibition of Gal4-tagged ERalpha LBD (unknown origin) by cell based luciferase reporter gene assay
T4 sequence (P03372 whole entry): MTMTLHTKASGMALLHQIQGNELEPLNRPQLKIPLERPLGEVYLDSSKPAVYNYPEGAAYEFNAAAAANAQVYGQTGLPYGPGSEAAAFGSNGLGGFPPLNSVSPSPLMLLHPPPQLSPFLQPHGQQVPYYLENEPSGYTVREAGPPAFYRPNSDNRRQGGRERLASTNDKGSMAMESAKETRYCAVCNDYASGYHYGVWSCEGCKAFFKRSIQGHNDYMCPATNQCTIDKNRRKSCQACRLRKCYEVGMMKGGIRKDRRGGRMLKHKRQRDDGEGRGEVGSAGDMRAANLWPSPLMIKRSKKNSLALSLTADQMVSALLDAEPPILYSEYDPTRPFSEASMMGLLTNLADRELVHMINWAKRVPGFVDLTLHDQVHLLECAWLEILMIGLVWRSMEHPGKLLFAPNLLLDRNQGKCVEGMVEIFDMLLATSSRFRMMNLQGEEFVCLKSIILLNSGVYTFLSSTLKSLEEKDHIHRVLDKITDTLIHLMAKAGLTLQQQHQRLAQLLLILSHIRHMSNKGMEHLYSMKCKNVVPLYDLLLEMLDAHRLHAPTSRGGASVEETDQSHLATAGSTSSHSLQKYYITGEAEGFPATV

[6] = Clearance in Sprague-Dawley rat at 1 mg/kg, iv; format: ADME, organism-based; conditions: in vivo
[7] = biological target: T1, Nuclear receptor ROR-gamma; test: Displacement of RIP140 cofactor peptide from human His6-tagged RORgammat LBD (264 to 518 residues) by TR-FRET assay
[8] = Inverse agonist activity at RORgammat in rat whole blood assessed as reduction in Con A/IL-23-stimulated IL-17 secretion after 72 hrs by ELISA
[9] = biological target: T1, Nuclear receptor ROR-gamma; test: Inhibition of human full-length eGFP-tagged RORgammat expressed in human HUT78 T-cells assessed as inhibition of PMA/CD3 monoclonal antibody stimulated IL-17 secretion after 48 hrs by ELISA; format: cell-based
[10] = Terminal half life in Sprague-Dawley rat at 1 mg/kg, iv; format: ADME, organism-based; conditions: in vivo, read-out: beta t1/2 (converted)
[11] = Dose normalized AUC in DA rat at 5 mg/kg, po; format: ADME, organism-based; conditions: in vivo

bioavailability [1]: 90% | IC50 [2]: 1340 nM | IC50 [3]: > 10000 nM | IC50 [4]: > 10000 nM | IC50 [5]: > 10000 nM | clearance [6]: 2.7 mL/min/kg | IC50 [7]: 5 nM | IC50 [8]: 702 nM | IC50 [9]: 70 nM | half-life [10]: 5.3 h | AUC/dose [11]: 11391 nM·h
SMILES: Cc1c(C2(C(F)(F)F)CC2)nc(C2CC2)n1-c1c(Cl)ccc(N2CC3(CC(C(=O)O)C3)C2)c1Cl (single isomer, unassigned; atropisomer)
